Experimental data from publication PMC7493219 (Journal of Crohn's & Colitis, 2020).
Read-outs that look alike come from different tables or passages of the source.

Assays:
[1] = system: oxazolone-induced colitis; experiment: Oxazolone-induced colitis model; format: in vivo, Balb/C mice; details: for effects of oxazolone (DAI and subscores): highest dose tested, 30 mg/kg
human recombinant TYK2 = human recombinant TYK2 (Homo sapiens, UniProt P29597); experiment: LanthaScreen kinase assay; format: biochemical
[2] = Oral pharmacokinetics in mice; details: for concentration at 24 h / Cmax: male, Balb/C, mouse, in vivo, 10 mg/kg; for Cmax: po
pSTAT3 in colonic mucosa = experiment: Target engagement in the oxazolone colitis model; format: in vivo, Balb/C mice; details: oral 30 mg/kg BID; for T cell infiltration into the colonic mucosa: oxazolone-treated mice
[3] = system: IL-13-potentiated IL-8 production in HT-29 cells; experiment: HT-29 IL-13/IL-8 assay; format: cell-based; details: Homo sapiens, HT-29, read-out: Mean ± SD inhibitory potency [pIC50], IL-13/IL-8 (converted)
[4] = system: splenic NK, T and B cells; experiment: Splenocyte studies; format: in vivo, Balb/C mice; details: 3 days
[5] = system: IL-13-induced pSTAT6 in HT-29 cells; experiment: HT-29 IL-13/pSTAT6 assay; format: cell-based; details: Homo sapiens, HT-29, read-out: Mean ± SD inhibitory potency [pIC50], IL-13/pSTAT6 (converted)
[6] = system: moderately to severely active UC; experiment: Phase 1b study, efficacy assessments; format: in vivo, human; details: after the 28-day treatment, all doses
mouse recombinant JAK1 = mouse recombinant JAK1 (Mus musculus, UniProt P52332); experiment: LanthaScreen kinase assay; format: biochemical
[7] = system: GM-CSF-induced pSTAT5 in human whole blood; experiment: Human whole blood GM-CSF/pSTAT5 assay; format: cell-based; details: read-out: Mean ± SD inhibitory potency [pIC50], GM-CSF/pSTAT5 (converted)
[8] = FTIH SAD/MAD study, safety and tolerability in healthy subjects; format: in vivo, human; details: single dose up to 1000 mg, daily doses up to 300 mg for 14 days
[9] = system: GM-CSF-induced pSTAT5 in THP-1 cells; experiment: THP-1 GM-CSF/pSTAT5 assay; format: cell-based; details: Homo sapiens, THP-1, read-out: Mean ± SD inhibitory potency [pIC50], GM-CSF/pSTAT5 (converted)
[10] = system: IL-4-induced pSTAT6 in THP-1 cells; experiment: THP-1 IL-4/pSTAT6 assay; format: cell-based; details: Homo sapiens, THP-1, read-out: Mean ± SD inhibitory potency [pIC50], IL-4/pSTAT6 (converted)
[11] = system: IL-6-induced pSTAT3 in THP-1 cells; experiment: THP-1 IL-6/pSTAT3 assay; format: cell-based; details: Homo sapiens, THP-1, read-out: Mean ± SD inhibitory potency [pIC50], IL-6/pSTAT3 (converted)
clinical = details: human, in vivo
[12] = Phase 1b study, safety and tolerability in UC patients; format: in vivo, human; details: 20, 80, 270 mg QD 28 days
[13] = system: IL-6-induced pSTAT1 in Balb/C mouse primary colonic epithelial cells; experiment: Mouse colonic epithelial cell IL-6/pSTAT1 assay; format: cell-based; details: from Table 1 pIC50

mouse recombinant JAK1, sequence (P52332 whole entry): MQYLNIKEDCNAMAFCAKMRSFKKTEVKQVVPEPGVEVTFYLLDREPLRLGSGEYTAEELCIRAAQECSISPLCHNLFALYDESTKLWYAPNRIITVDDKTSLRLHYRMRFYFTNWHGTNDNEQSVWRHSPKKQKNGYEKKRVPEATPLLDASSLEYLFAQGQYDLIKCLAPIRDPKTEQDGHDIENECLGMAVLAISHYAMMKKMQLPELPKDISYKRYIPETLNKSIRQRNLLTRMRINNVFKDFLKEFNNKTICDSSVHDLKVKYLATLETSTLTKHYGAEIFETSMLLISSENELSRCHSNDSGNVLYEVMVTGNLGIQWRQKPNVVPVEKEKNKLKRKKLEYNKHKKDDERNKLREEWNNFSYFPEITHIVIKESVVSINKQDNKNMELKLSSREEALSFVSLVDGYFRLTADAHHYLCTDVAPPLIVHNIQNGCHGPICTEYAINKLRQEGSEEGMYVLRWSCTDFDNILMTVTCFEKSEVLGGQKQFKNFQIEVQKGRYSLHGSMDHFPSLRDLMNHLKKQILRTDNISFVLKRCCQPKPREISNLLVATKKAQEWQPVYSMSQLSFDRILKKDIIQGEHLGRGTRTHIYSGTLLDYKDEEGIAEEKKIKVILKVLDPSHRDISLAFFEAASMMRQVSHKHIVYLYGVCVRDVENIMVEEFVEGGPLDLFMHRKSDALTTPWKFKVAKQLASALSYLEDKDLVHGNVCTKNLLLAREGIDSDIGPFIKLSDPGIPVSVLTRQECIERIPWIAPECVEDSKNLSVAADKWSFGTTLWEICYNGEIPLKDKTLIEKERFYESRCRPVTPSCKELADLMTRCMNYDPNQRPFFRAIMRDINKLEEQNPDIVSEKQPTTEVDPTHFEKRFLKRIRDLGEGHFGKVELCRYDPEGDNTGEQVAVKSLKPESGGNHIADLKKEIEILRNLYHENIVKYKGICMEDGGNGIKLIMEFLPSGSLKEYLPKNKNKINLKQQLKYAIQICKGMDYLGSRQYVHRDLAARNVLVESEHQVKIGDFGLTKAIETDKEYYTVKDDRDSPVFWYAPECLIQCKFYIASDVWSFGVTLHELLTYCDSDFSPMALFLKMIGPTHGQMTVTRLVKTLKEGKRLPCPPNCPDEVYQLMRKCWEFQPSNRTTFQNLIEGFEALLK
human recombinant TYK2, sequence (P29597 whole entry): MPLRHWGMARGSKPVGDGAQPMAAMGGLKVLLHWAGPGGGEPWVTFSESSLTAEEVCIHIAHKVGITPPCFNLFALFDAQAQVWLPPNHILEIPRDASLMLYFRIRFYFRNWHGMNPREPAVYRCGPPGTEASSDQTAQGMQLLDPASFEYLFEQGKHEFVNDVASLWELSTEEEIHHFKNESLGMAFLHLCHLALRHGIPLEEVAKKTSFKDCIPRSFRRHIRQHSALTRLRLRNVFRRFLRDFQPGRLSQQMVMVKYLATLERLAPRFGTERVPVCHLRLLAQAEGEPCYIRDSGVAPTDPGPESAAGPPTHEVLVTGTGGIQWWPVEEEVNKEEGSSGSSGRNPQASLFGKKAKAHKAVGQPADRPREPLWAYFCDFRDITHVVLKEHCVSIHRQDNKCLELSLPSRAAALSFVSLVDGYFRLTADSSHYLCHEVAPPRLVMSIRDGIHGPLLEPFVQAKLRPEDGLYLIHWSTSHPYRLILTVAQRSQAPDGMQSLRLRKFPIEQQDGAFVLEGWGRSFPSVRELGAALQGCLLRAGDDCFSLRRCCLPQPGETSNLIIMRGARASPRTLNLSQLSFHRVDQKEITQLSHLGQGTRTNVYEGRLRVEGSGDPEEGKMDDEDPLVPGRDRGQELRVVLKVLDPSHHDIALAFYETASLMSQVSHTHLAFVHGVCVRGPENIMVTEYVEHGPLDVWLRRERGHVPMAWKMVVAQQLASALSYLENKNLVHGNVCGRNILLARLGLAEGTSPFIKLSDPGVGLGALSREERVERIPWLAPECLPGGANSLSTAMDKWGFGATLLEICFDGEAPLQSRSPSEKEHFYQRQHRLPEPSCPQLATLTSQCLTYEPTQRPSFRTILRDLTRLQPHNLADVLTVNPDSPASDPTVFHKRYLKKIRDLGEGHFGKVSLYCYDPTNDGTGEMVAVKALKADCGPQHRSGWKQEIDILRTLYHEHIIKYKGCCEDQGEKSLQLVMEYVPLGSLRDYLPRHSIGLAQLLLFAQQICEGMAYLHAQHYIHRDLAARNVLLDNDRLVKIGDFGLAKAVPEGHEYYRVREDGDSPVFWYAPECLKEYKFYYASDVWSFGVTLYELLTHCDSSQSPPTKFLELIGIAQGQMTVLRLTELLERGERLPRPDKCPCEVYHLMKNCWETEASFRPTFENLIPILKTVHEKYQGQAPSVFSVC

Cc1cc(Nc2cc3ncccc3c(N[C@@H]3C[C@H]4CC[C@@H](C3)N4CCC#N)n2)n[nH]1 [TD-1473]
effects of oxazolone (DAI and subscores) [1]: did not significantly attenuate | oxazolone-induced elevated DAI, reduction in body weight and stool consistency, increase in stool blood content ([1]; oral 0.3–10 mg/kg BID): attenuated | colonic tissue concentration, geometric mean [95% CI] (20 mg QD, day 28): 4090 [2270–7380] pg/g | geometric mean colonic tissue concentration [average of sigmoid and rectum] (20 mg QD, day 28): 4090 pg/mL | patients with plasma trough concentration BLQ (20 mg, day 14): 4/9 | geometric mean colonic tissue concentration [average of sigmoid and rectum] (80 mg QD, day 28): 65 300 pg/mL | geometric mean trough concentration as % of Cmax (80 mg, day 14): 3.57% | geometric mean colonic tissue concentration [average of sigmoid and rectum] (270 mg QD, day 28): 43 500 pg/mL | geometric mean trough concentration as % of Cmax (270 mg, day 14): 5.79% | stronger potency for TYK2 compared with tofacitinib (human recombinant TYK2): approximately 40 fold | concentration at 24 h [2]: < 0.25 nM | Cmax ([2]; colon, 10 mg/kg oral): 3690 ng/g | Cmax ([2]; plasma, 10 mg/kg oral): 1.4 ng/mL | T cell infiltration into the colonic mucosa (pSTAT3 in colonic mucosa; 30 mg/kg): preventing T cell infiltration | pSTAT3 levels in colonic mucosa of oxazolone-treated mice vs vehicle (pSTAT3 in colonic mucosa; 30 mg/kg): significantly inhibited | IC50 [3]: 79.4 nM | numbers of splenic NK, B or T cells vs vehicle ([4]; oral 1, 10 and 100 mg/kg BID): did not affect | IC50 [5]: 79.4 nM | clinical remission [6]: No patient achieved clinical remission | Ki (mouse recombinant JAK1): 0.0631 nM | IC50 [7]: 200 nM | tolerability [8]: generally well tolerated | IC50 [9]: 100 nM | IC50 [10]: 31.6 nM | IC50 [11]: 50.1 nM | Tmax (clinical): ~1 h | TEAE incidence, TD-1473 treatment arms overall [12]: 38.7% | laboratory parameters (haematological, renal, hepatic, creatinine phosphokinase, lipid) [12]: did not adversely affect | tolerability [12]: generally well tolerated | mouse colonic epithelial IL-6/pSTAT1 IC50 [13]: 0.020 µg/g

C[C@@H]1CCN(C(=O)CC#N)C[C@@H]1N(C)c1ncnc2[nH]ccc12 [tofacitinib, reference compound]
effects of oxazolone (DAI and subscores) [1]: did not significantly attenuate | oxazolone-induced elevated DAI, reduction in body weight and stool consistency, increase in stool blood content ([1]; oral 10 and 15 mg/kg TID): attenuated | colonic level 24 h postdose (BLQ) ([2]; 10 mg/kg oral): < 0.00025 µM | concentration at 24 h [2]: < 0.25 nM | Cmax ([2]; colon, 10 mg/kg oral): 2570 ng/mL | Cmax ([2]; plasma, 10 mg/kg oral): 193 ng/mL | T cell infiltration into the colonic mucosa (pSTAT3 in colonic mucosa): preventing T cell infiltration | pSTAT3 levels in colonic mucosa of oxazolone-treated mice vs vehicle (pSTAT3 in colonic mucosa; 30 mg/kg): significantly inhibited | splenic T and B cell numbers ([4]; oral 10, 15 and 30 mg/kg TID): did not affect
